Measured values taken from PMC6271717, “Chemical Composition, Biological and Cytotoxic Activities of Plant Extracts and Compounds Isolated from Ferula lutea” (Molecules, 2014).
≈ marks a conversion by molar mass, not a printed value.

Experiments:
[1] = tested on: human chronic myelogenous leukaemia cell line K562; test: Cytotoxic activity (MTT assay); type: cell-based; details: K562, 72 h
Method: Cytotoxic activity of extracts against the human chronic myelogenous leukaemia cell line K562 was estimated by the 3-(4,5-dimethylthiazol-2-yl)-2,5-diphenyltetrazolium bromide (MTT) assay of Khlifi et al.. The cells were grown in RPMI- 1640 medium supplemented with 10% faetal calf serum (Gibco, Gaithersburg, MD, USA), air and 5% CO2. The resulting blue formazan product can be measured spectrophotometrically. The MTT colorimetric assay was performed in 96-well plates. […] human chronic myelogenous leukaemia K562 cells were seeded in a 96-well plate at a concentration of 10^4 cells/well and incubated at 37 °C overnight in a 5% CO2 enriched atmosphere. Cells in exponential growth phase were incubated at 37 °C for 72 h with each tested compound at concentrations ranging from 3.12 to 400 μg/mL. After that, the medium was removed and cells were treated with MTT solution (100 μL, 0.2 mg/mL in PBS) at 37 °C for 2 h. MTT solution was then discarded and DMSO (500 μL) was added to dissolve insoluble formazan crystals. Optical density was measured at 540 nm. Each extract concentration was tested in triplicate. Doxorubicin was used as positive control.

[2] = tested on: Candida kreseui ATCC 6258; test: Anticandida activity, broth microdilution; type: cell-based; details: ATCC6258, positive control
Method: (§1) The MIC values for the antibacterial and anticandidal screening were determined with the broth dilution method (microdilution using 96-well microplates) following the procedure described by Cintia et al. [35]. Briefly, all samples were prepared at a concentration of 10 mg/mL by dissolution of the extracts in 10% DMSO. The final concentrations of the plant samples tested ranged from 40 to 2 × 10^4 µg/mL. The MIC of each sample was defined as the lowest concentration of oil that inhibited either the bacterial or candidal growth, after incubation at 37 °C for 18 to 24 h. The MBC and the MFC were determined by subculture on blood agar at 37 °C for 18 to 24 h. Thymol and gentamicin or thymol and amphotericin B were used as positive controls against the bacterial or candidal strains, respectively. […] All tests were performed in triplicate.

[3] = tested on: Pseudomonas aeruginosa ATCC 27853; test: Antibacterial activity, broth microdilution; type: cell-based; details: ATCC27853, positive control
Method: (§2) The test microorganisms included the following Gram-positive bacteria: Staphylococcus aureus ATCC 25923, Enterococcus faecalis ATCC 29212; Gram-negative bacteria: Escherichia coli ATCC 25922 and Pseudomonas aeruginosa ATCC 27853 and four Candida yeasts: Candida albicans ATCC 90028, C. glabrata ATCC 90030, C. kreusei ATCC 6258 and C. parapsilosis ATCC 22019).
as §1

[4] = tested on: Escherichia coli ATCC 25922; test: Antibacterial activity, broth microdilution; type: cell-based; details: ATCC25922, positive control
Method: as §2, §1

[5] = tested on: Candida glabrata ATCC 90030; test: Anticandida activity, broth microdilution; type: cell-based; details: Nakaseomyces glabratus, ATCC90030; positive control
Method: as §2, §1

[6] = tested on: Candida albicans ATCC 90028; test: Anticandida activity, broth microdilution; type: cell-based; details: ATCC90028, positive control
Method: as §2, §1

[7] = tested on: Enterococcus faecalis ATCC 29212; test: Antibacterial activity, broth microdilution; type: cell-based; details: ATCC29212, positive control
Method: as §1

[8] = tested on: Staphylococcus aureus ATCC 25923; test: Antibacterial activity, broth microdilution; type: cell-based; details: ATCC25923, positive control
Method: as §1

[9] = tested on: Candida parapsilosis ATCC 22019; test: Anticandida activity, broth microdilution; type: cell-based; details: Lodderomyces parapsilosis, ATCC22019; positive control
Method: as §2, §1

[10] = Antioxidant activity by DPPH assay
Method: Diluted methanol solutions of the samples at different concentrations (1 mL each) were mixed with 1 mL of a freshly prepared (80 µg/mL) methanol solution of DPPH. The resulted solution was incubated at 37 °C for 30 min after what the absorbance of the solution was measured at 517 nm. Lower absorbance of the reaction mixture indicates higher free radical scavenging activity. Tests were carried out in triplicate. Decrease in absorption induced by the tested sample was compared to that of the positive control ascorbic acid. The capability to scavenge the DPPH^.radical was calculated using the following equation: Inhibition ratio (DPPH^. scavenging effect) (%) = [(Acontrol − Asample) / Acontrol] × 100 (1)
The IC50 was calculated using the linear relation between the compound concentration and the probability of the percentage of DPPH inhibition.

[11] = Antioxidant activity by ABTS assay
Method: ABTS was dissolved in water to a 7 mM concentration and the ABTS radical cation was produced by adding potassium persulfate to a final concentration of 2.45 mM [31]. The radical generation was completed in the dark at room temperature for 12 h. This solution was then diluted with methanol to adjust its absorbance at 734 nm to 0.706 ± 0.009. To determine the scavenging activity, 1 mL of diluted ABTS^+. solution was added to 1 mL of methanolic solutions of extract at different concentrations and the absorbance at 734 nm was measured 10 min after the initial mixing, using methanol as the blank. The percentage of inhibition was calculated by the equation: [(Acontrol − Asample)/Acontrol] × 100 (2) where Acontrol is the absorbance of the control reaction containing all reagents except the tested sample, and Asample is the absorbance of the test compound. Tests were carried out in triplicate. Ascorbic acid was used as the positive control. The IC50 was calculated using linear relation between the compound concentration and probability of the percentage of ABTS inhibition.

`COc1cccc2c1C(=O)c1c(O)c3c(c(O)c1C2=O)C[C@@](O)(C(=O)CO)C[C@@H]3O[C@H]1C[C@H](N)[C@H](O)[C@H](C)O1` [Doxorubicin] showed an IC50 [1] of 0.1 µg/mL (≈ 0.184 µM).
Compound `Cc1ccc(C(C)C)c(O)c1` [Thymol] has an MIC [2] of 0.32 µg/mL (≈ 2.13 µM), an MIC [3] of 1 µg/mL (≈ 6.66 µM) and an MIC [4] of 0.25 µg/mL (≈ 1.66 µM). It also gave an MIC [5] of 0.16 µg/mL (≈ 1.07 µM), an MIC [6] of 0.13 µg/mL (≈ 0.865 µM) and an MIC [7] of 0.6 µg/mL (≈ 3.99 µM). For the same compound, the MIC [8] was 0.2 µg/mL (≈ 1.33 µM) and the MIC [9] was 0.32 µg/mL (≈ 2.13 µM).
For `O=C1O[C@H]([C@@H](O)CO)C(O)=C1O` [Vitamin C, L-ascorbic acid], the “DPPH Assay IC50” value [10] was 4.4 ± 0.1 µg/mL and the “ABTS+ Assay IC50” value [11] was 4.1 ± 0.1 µg/mL.
`CNC(C)C1CCC(N)C(OC2C(N)CC(N)C(OC3OCC(C)(O)C(NC)C3O)C2O)O1` (stereo not shown) [Gentamecin, gentamicin] gave an MBC [3] of 0.5 µg/mL (≈ 1.05 µM), an MBC [4] of 0.01 µg/mL (≈ 0.0209 µM) and an MBC [7] of 0.01 µg/mL (≈ 0.0209 µM). The MBC [8] was 0.15 µg/mL (≈ 0.314 µM).
With `C[C@@H]1[C@H](O)[C@@H](C)/C=C/C=C/C=C/C=C/C=C/C=C/C=C/[C@H](O[C@@H]2O[C@H](C)[C@@H](O)[C@H](N)[C@@H]2O)C[C@@H]2O[C@](O)(C[C@@H](O)C[C@@H](O)[C@H](O)CC[C@@H](O)C[C@@H](O)CC(=O)O[C@H]1C)C[C@H](O)[C@H]2C(=O)O` [Amphotericin B] the MFC [2] was 0.5 µg/mL (≈ 0.541 µM), the MFC [5] was 0.5 µg/mL (≈ 0.541 µM) and the MFC [6] was 0.5 µg/mL (≈ 0.541 µM). For the same compound, the MFC [9] was 0.5 µg/mL (≈ 0.541 µM).
